According to PMC9105941, “A New Xanthone Glycoside from Mangifera indica L.: Physicochemical Properties and In Vitro Anti-Skin Aging Activities” (Molecules, 2022):
Peptide text beside a SMILES is read from it. * marks the point of attachment. MeOSuc = COC(=O)CCC(=O)*; CH2Cl = ClC*

How the values were obtained:
Format in all cases: biochemical
tyrosinase = experiment: Tyrosinase Inhibitor Screening Colorimetric Assay Kit; details: 25 °C, 510 nm
Experimental: The inhibitory activities of oils were tested against collagenase using the Abcam® Tyrosinase Inhibitor Screening Colorimetric Assay Kit (catalog # ab204715). The assay was carried out according to the provided manual. […] The tested compound was prepared in concentrations ranging from 0.1 to 100 µg/mL for the analysis. About 2 μL of provided tyrosinase was mixed with 48 μL of tyrosinase assay buffer. The samples of essential oils or standard (20 μL) were mixed with the enzyme mixture (50 μL) and incubated at 25 °C for 10 min. Then, 30 μL of tyrosinase substrate solution was added to the wells of essential oils and standard. Afterward, the plate was measured spectrophotometrically at a wavelength of 510 nm for 30–60 min at 25 °C.

collagenase = experiment: fluorometric collagenase inhibitor screening kit; details: 37 °C, 60 min kinetic
Experimental: The inhibitory ability of the isolated compound against collagenase activity was assessed using a fluorometric collagenase inhibitor screening kit (BioVision, catalog no. # K833-100) according to the previously described method. The reference control was (1,10)-phenanthroline. The tested compound and reference control were prepared in concentrations of 1, 10, 100, and 1000 ug/mL for the analysis. The tested compound was prepared in a 96-well plate with a flat bottom. First, the collagenase substrate was dissolved in collagenase assay buffer (CAB). The sample for analysis was prepared by mixing the compound with both collagenase and CAB. Preparing inhibitor control samples was performed by mixing the inhibitor ((1,10)-phenanthroline (80 mM)) with the diluted collagenase enzyme and CAB buffer. Enzyme control was prepared by mixing the diluted collagenase with CAB. The CAB buffer was used as the background control. All samples were incubated at room temperature for 15 min. […] The fluorescence was measured immediately at 490 nm excitation wavelength and 520 nm emission wavelength using a microplate reader (FilterMax F5, Thermo Fisher). […] Samples were prepared in duplicate and the collagenase inhibitory effect of the tested compound was calculated applying the following equation: % Relative inhibition=Enzyme control−sample/Enzyme control×100

elastase = elastase (Sus scrofa, UniProt P00772); experiment: EnzChek Elastase Assay Kit, anti-elastase activity; details: fluorometric kit, 37 °C, 30 min kinetic
Experimental: Anti-elastase activity of the compound was investigated using the EnzChek® Elastase Assay Kit (E-12056) according to the previously reported method. The tested compound and reference control were prepared in concentrations of 0.1, 1, 10, and 100 µg/mL for the analysis. The compound was prepared in 96-well plates with clear bottoms for the fluorometric assay. Briefly, elastase enzyme solutions, elastase substrate, and inhibitor control were prepared as recommended. Diluted elastase solution was then added to the wells. Tested compound, inhibitor control, and enzyme control were added to subsequent wells. The samples were mixed on a shaker and then incubated for 5 min at 37 °C. Assay buffer was mixed with the substrate to prepare the fluorometric reaction mix, which was then added and mixed thoroughly with each sample. The fluorescence was measured immediately at 400 nm excitation wavelength and 505 nm emission wavelength using a microplate reader (FilterMax F5, Thermo Fisher, Waltham, MA, USA). The measurement was made in kinetic mode at 37 °C for 30 min protected from light. All tested samples were prepared and assayed in duplicate and the elastase inhibitory effect of the tested compound was calculated applying the following equation: %Relative inhibition=ΔRFU(test inhibitor)/ΔRFU×100 where: • ΔRFU = a change in relative fluorescence units • EC = enzyme control

Sequence of elastase (P00772 27-266): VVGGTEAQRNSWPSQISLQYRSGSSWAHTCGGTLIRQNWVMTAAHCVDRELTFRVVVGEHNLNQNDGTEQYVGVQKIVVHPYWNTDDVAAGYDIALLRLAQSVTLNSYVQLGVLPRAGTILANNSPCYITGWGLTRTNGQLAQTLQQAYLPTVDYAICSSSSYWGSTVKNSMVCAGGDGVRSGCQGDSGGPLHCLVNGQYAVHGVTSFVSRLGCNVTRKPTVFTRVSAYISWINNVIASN

O=c1c2ccc(O)c(O)c2oc2c(C3OC(CO)C(O)C(O)C3O)c(O)cc(O)c12 [isolated compound, 1,3,5,6-tetrahydroxyxanthone-C-4-β-D-glucopyranoside]
anti-tyrosinase IC50 (tyrosinase): 0.48 µg/mL

c1cnc2c(c1)ccc1cccnc12 [phenanthroline, (1,10)-phenanthroline]
anti-collagenase IC50 (collagenase): 182.80 µg/mL

COC(=O)CCC(=O)N[C@@H](C)C(=O)N[C@@H](C)C(=O)N1CCC[C@H]1C(=O)N[C@H](C(=O)CCl)C(C)C [N-methoxysuccinyl-Ala-Ala-Pro-Val-chloromethyl ketone] (MeOSuc-AAPV-CH2Cl)
anti-elastase IC50 (elastase): 0.63 µg/mL
